Measurements taken from article PMC10819771 (Pharmaceuticals, 2023).
Like-named read-outs stand apart in the source and are kept apart here.

Columns and labels:
Fc-MYCT = assay: FRET-melting, Fc-MYCT; type: binding; conditions: ligand 2 μM, DNA 0.2 μM, K+ conditions, pH 7.2
Procedure: (§1) FRET-melting experiments were conducted on a Stratagene MX3005P (Thermo Fisher Scientific, Illkirch-Graffenstaden, France) real-time PCR equipment in 96-well plates on the DNA sequences reported in Table 4. Experiments were performed in 10 mM lithium cacodylate buffer (pH 7.2) and either 10 mM KCl and 90 mM LiCl (FK-RAST, FBCL-2T, F21T, and FdxT) or 1 mM KCl and 99 mM LiCl (Fc-MYCT) concentrations, depending on the Tm of the G4s alone. The DNA concentration was 0.2 µM. […] Data are presented as an average of three independent measurements, each conducted in duplicate conditions (λexc = 492 nm, λem = 516 nm, T interval = 25–95 °C, ramp: 25 °C for 5 min, then 1 °C/min, measurements every 1 °C, 8× magnification of the fluorescence signal).

HEK293 = assay: MTT proliferation test on normal cells, HEK293; type: cell-based; conditions: Homo sapiens, normal epithelial cells, cytotoxicity, read-out: IC50 Values (μM) ± SEM HEK293
Procedure: The MTT proliferation test on the epithelial cell line HEK293 was performed as pre-viously described. The 50% inhibiting concentrations (IC50) were determined by linear regression analysis.

FdxT = assay: FRET-melting, duplex control FdxT; type: binding; conditions: ligand 2 μM, DNA 0.2 μM, 10 mM KCl, 90 mM LiCl, pH 7.2, hairpin duplex
Procedure: as §1

MDA-MB-231 = assay: MTT antiproliferative assay, MDA-MB-231; type: cell-based, human; conditions: for IC50: MTT, 72 h, breast cancer cells, read-out: IC50 Values (μM) ± SEM MDA-MB-231; for Selectivity Index HEK293/MDA-MB-231: IC50 HEK293 / IC50 MDA-MB-231
Procedure: (§2) The growth-inhibitory effects of the compounds were determined by MTT (3-(4,5-dimethylthiazol-2-yl)-2,5-diphenyltetrazolium bromide) assay on selected cell lines, including HeLa and SiHa (cervical cancers), MDA-MB-231 and MCF-7 (breast cancers), and A2780 ovarian cancer cells. All cell lines were purchased from the European Collection of Cell Cultures (Salisbury, UK) except SiHa, which was obtained from the American Tissue Culture Collection (Manassas, VA, USA). The cells were kept in minimum essential medium supplemented with 10% fetal bovine serum, 1% non-essential amino acids, and 1% penicillin-streptomycin-amphotericin-B at 37 °C in a humidified atmosphere containing 5% CO2. Media and supplements were obtained from Lonza Group Ltd., (Basel, Switzerland). Cancer cells were seeded onto 96-well plates (5000 cells/well), after an overnight incubation the test compounds were added in six concentrations (0.1, 0.3, 1.0, 3.0, 10.0, 30.0 µM) and incubated for 72 h under cell-culture condition. After the incubation, 20 μL of 5 mg/mL MTT solution was added to each well and incubated for a further 4 h. The medium was removed, and the precipitated formazan crystals were dissolved in DMSO for 30 min under shaking at 37 °C. The absorbance was measured at 545 nm with a microplate reader. Untreated cells were included as controls. Calculations were performed by means of the GraphPad Prism 5.01 software (GraphPad Software Inc., San Diego, CA, USA). At least two independent determinations were performed with 5 parallel wells for each condition.

MCF-7 = assay: MTT antiproliferative assay, MCF-7; type: cell-based, human; conditions: for IC50: MTT, 72 h, breast cancer cells, read-out: IC50 Values (μM) ± SEM MCF-7; for Selectivity Index HEK293/MCF-7: IC50 HEK293 / IC50 MCF-7
Procedure: as §2

FK-RAST = assay: FRET-melting, FK-RAST; type: binding; conditions: ligand 2 μM, DNA 0.2 μM, 10 mM KCl, 90 mM LiCl, pH 7.2
Procedure: as §1

K562 = assay: MTS cell proliferation assay, K562; type: cell-based, human; conditions: for IC50: MTS, 3-day incubation, leukemia cells, read-out: IC50 Values (μM) ± SEM K562; for Selectivity Index HEK293/K562: IC50 HEK293 / IC50 K562
Procedure: The human leukemic cell line K562 was grown in RPMI 1640 medium (Life Technology-Invitrogen by Thermo Fisher Scientific, Saint-Aubin, France) supplemented with 10% fetal calf serum (FCS), antibiotics (100 U/mL penicillin, 100 µg/mL streptomycin), and L-glutamine, (Eurobio, Les Ulis, France) at 37 °C, 5% CO2 in air. The MTS cell proliferation assay (Promega, Charbonnières-les-Bains, France) is a colorimetric assay system, which measures the transformation of a tetrazolium component (MTS) into formazan produced by the mitochondria of viable cells. Cells were washed twice in PBS (Phosphate Buffer Saline) and plated in quadruplicate into microtiter-plate wells in 100 μL culture media with or without our various compounds at increasing concentrations (0, 1, 5, 10, 20, and 50 μM) for 1, 2, and 3 days. After 3 h of incubation at 37 °C with 20 μL MTS/well, the plates were read using an ELISA microplate reader (Thermo, Electrocorporation, Waltham, MA, USA) at 490 nm. The amount of color produced was directly proportional to the number of viable cells. The results are expressed as the concentrations inhibiting cell growth by 50% after a 3-day incubation period. The 50% cytotoxic concentrations (CC50) were determined by linear regression analysis, expressed in μM ± SD (Microsoft Excel).

HeLa = assay: MTT antiproliferative assay, HeLa; type: cell-based, human; conditions: for IC50: MTT, 72 h, cervical cancer cells, read-out: IC50 Values (μM) ± SEM HeLa; for Selectivity Index HEK293/HeLa: IC50 HEK293 / IC50 HeLa
Procedure: as §2

A2780 = assay: MTT antiproliferative assay, A2780; type: cell-based, human; conditions: for IC50: MTT, 72 h, ovarian cancer cells, read-out: IC50 Values (μM) ± SEM A2780; for Selectivity Index HEK293/A2780: IC50 HEK293 / IC50 A2780
Procedure: as §2

SiHa = assay: MTT antiproliferative assay, SiHa; type: cell-based, human; conditions: for IC50: MTT, 72 h, cervical cancer cells, read-out: IC50 Values (μM) ± SEM SiHa; for Selectivity Index HEK293/SiHa: IC50 HEK293 / IC50 SiHa
Procedure: as §2

FBCL-2T = assay: FRET-melting, FBCL-2T; type: binding; conditions: ligand 2 μM, DNA 0.2 μM, 10 mM KCl, 90 mM LiCl, pH 7.2
Procedure: as §1

telomerase = assay: Telomerase activity (TRAP assay) in MCF-7 cell lysates; type: biochemical, human; conditions: 5 µM compound, MCF-7 cell lysate
Procedure: Telomerase activity was assessed using the TRAP assay kit (TRAPeze® RT telomerase detection kit, Chemicon, Millipore Sigma S7700, Merck KGaA, Darmstadt, Germany) according to manufacturer’s instructions with some modifications. Briefly, […] in CHAPS lysis buffer and proteins were extracted. Protein extracts and various concentrations of compounds (0 to 5 µM) were used to extend a synthetic telomeric DNA using an enzymatic reaction (30 °C during 20 min), followed by a quantification of telomeric DNA using a telomeric PCR amplification: 95 °C for 3 min, 2 cycles of 95 °C for 20 s, and 49 °C for 20 s, followed by 30 cycles 95 °C for 20 s and 60 °C for 20 s with signal acquisition) in a Stratagene Mx3005P system (Agilent, Les Ulis, France) using specific telomeric PCR quantitative primers. Each sample was measured in technical duplicate with control DNA. For each drug and each dilution, we used biological triplicate of cell lysates.

[1] = test system: human telomeric sequence F21T; assay: FRET-melting, F21T; type: binding; conditions: ligand 2 μM, DNA 0.2 μM, 10 mM KCl, 90 mM LiCl, pH 7.2
Procedure: as §1

| Structure (SMILES) | ΔT1/2 (°C) Fc-MYCT (Fc-MYCT) | IC50 (HEK293) | ΔT1/2 (°C) FdxT (FdxT) | IC50 (MDA-MB-231; Homo sapiens, MDA-MB-231, 72 h) | Selectivity Index HEK293/MDA-MB-231 (MDA-MB-231) | IC50 (MCF-7; Homo sapiens, MCF7, 72 h) | Selectivity Index HEK293/MCF-7 (MCF-7) | ΔT1/2 (°C) FK-RAST (FK-RAST) | IC50 (K562; Homo sapiens, K562, 72 h) | Selectivity Index HEK293/K562 (K562) | IC50 (HeLa; Homo sapiens, HeLa) | Selectivity Index HEK293/HeLa (HeLa) | IC50 (A2780; Homo sapiens, A2780) | Selectivity Index HEK293/A2780 (A2780) | IC50 (SiHa; Homo sapiens, SiHa) | Selectivity Index HEK293/SiHa (SiHa) | ΔT1/2 (°C) FBCL-2T (FBCL-2T) | ΔT1/2 (°C) F21T [1] | other results |
| --- | --- | --- | --- | --- | --- | --- | --- | --- | --- | --- | --- | --- | --- | --- | --- | --- | --- | --- | --- |
| CN(C)CCCNCc1ccc(-c2nc(-c3ccc(CNCCCN(C)C)cc3)c3ccc(-c4ccccc4)cc3n2)cc1 [Compound 12f, 2,4-bis{4-[(3-dimethylaminopropyl)aminomethyl]phenyl}-7-phenylquinazoline] | 9.1 ± 1.4 °C | > 30 µM | 2.4 ± 0.1 °C | 0.55 ± 0.01 µM | >54.5 | 0.58 ± 0.08 µM | >51.7 | 20.1 ± 0.3 °C | 14 ± 0.3 µM | >2.14 | 1.51 ± 0.09 µM | >19.9 | 0.79 ± 0.19 µM | >38.0 | 0.75 ± 0.1 µM | >40.0 | 12.6 ± 0.6 °C |  | telomerase activity compared to control (telomerase): reduced drastically |
| CN(C)CCCCNCc1ccc(-c2nc(-c3ccc(CNCCCCN(C)C)cc3)c3ccc(-c4ccccc4)cc3n2)cc1 [Compound 12g, 2,4-bis{4-[(4-dimethylaminobutyl)aminomethyl]phenyl}-7-phenylquinazoline] | 14.7 ± 0.8 °C | 3.98 ± 0.12 µM | 3.2 ± 0.3 °C | 0.67 ± 0.35 µM | 5.94 | 0.63 ± 0.35 µM | 6.32 | 24.3 ± 1.1 °C | 12 ± 0.3 µM | 0.33 | 0.95 ± 0.51 µM | 4.19 | 1.74 ± 0.89 µM | 2.29 | 0.52 ± 0.22 µM | 7.65 | 17.5 ± 0.6 °C | 19.2 ± 1.0 °C |  |
| CN1CCN(CCCCNCc2ccc(-c3nc(-c4ccc(CNCCCCN5CCN(C)CC5)cc4)c4ccc(-c5ccccc5)cc4n3)cc2)CC1 [Compound 12j, 2,4-bis{4-[(4-(4-methylpiperazin-1-yl)butyl)aminomethyl]phenyl}-7-phenylquinazoline] | 14.1 ± 0.3 °C | 4.9 ± 0.15 µM | 1.5 ± 0.4 °C | 1.1 ± 0.15 µM | 4.45 | 0.58 ± 0.25 µM | 8.45 | 18.7 ± 1.6 °C | 8 ± 0.2 µM | 0.61 | 1.48 ± 0.8 µM | 3.31 | 1.44 ± 0.1 µM | 3.40 | 0.33 ± 0.08 µM | 14.85 | 9.8 ± 1.0 °C | 14.5 ± 1.2 °C |  |
| CC1CN(CCCNCc2ccc(-c3cc(-c4ccc(CNCCCN5CCNC(C)C5)cc4)c4cc(-c5ccccc5)ccc4n3)cc2)CCN1 (centres unmarked) [Compound 13c, 2,4-bis{4-[(4-(3-methylpiperazin-1-yl)propyl)aminomethyl]phenyl}-6-phenylquinoline] | 6.8 ± 1.4 °C |  | 0.1 ± 0.2 °C |  |  |  |  | 14.5 ± 0.8 °C |  |  |  |  |  |  |  |  | 7.5 ± 0.5 °C | 11.3 ± 0.9 °C | IC50 (MDA-MB-231): 1.33 ± 0.13 µM; IC50 (MCF-7): 0.86 ± 0.38 µM; IC50 (K562): 34 ± 0.7 µM; IC50 (HeLa): 1.3 ± 0.06 µM; IC50 (A2780): 1.58 ± 0.1 µM; IC50 (SiHa): 1.45 ± 0.13 µM |
